{"source": "patent US7932281B2", "about": "“Amine-based compound and use thereof” (Kureha Corporation, priority 2004, dated 2011)", "key": {"[1]": {"test_system": "HIV-1IIIB infected MT-4 cells", "assay": "Anti-HIV activity, HIV-1IIIB infected MT-4 cells, MTT method (Test Example 1)", "type": "cell-based", "conditions": "Human immunodeficiency virus 1, MT4, 120 h, concentration required for inhibition of cell disorder due to HIV infection by 50%, MOI 0.01, 5 days", "experimental": "Immediately after infection, HIV-1IIIB infected MT-4 cells (3.0×10^4/well, MOI (Multiplicity of infection): 0.01) were added to a 96-well microtiter plate together with the test compounds having different concentrations. The cells were cultured in a carbon dioxide incubator at 37° C. for 5 days, and the number of living cells was measured in accordance with the MTT (tetrazolium) method ([…], et al., J. of Virol. Method, 20, 309-321 […]). The antiviral activity is represented by the concentration required for inhibition of cell disorder due to HIV infection by 50% (EC50: 50% Effective Concentration) (μM), and the results are shown in Table 2."}, "CXCR4": {"molecular_target": "T1, CXCR4 (Homo sapiens, UniProt P61073)", "T1 construct": "endogenous in cells; host or cells: MT-4 cells", "T1 sequence (P61073 whole entry)": "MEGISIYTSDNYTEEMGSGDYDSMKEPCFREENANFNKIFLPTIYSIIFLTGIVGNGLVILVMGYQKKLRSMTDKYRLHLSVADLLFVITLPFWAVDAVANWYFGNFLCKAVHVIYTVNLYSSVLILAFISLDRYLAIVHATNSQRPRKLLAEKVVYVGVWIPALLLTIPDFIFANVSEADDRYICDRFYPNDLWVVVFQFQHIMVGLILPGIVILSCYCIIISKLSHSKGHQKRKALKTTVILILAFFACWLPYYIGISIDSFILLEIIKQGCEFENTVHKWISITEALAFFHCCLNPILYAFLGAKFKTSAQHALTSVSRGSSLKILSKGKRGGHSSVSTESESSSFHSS", "assay": "Inhibition of 125I-SDF-1α binding to receptors CXCR4 on MT-4 cells (Test Example 2)", "conditions": "binding-inhibition % at 0.01 μM, 2 hours under ice-cooling, read-out: Inhibition rate (%)", "experimental": "MT-4 cells (5×10^6/0.2 ml/well) were cultured on a 24-well microtiter plate. After the cells were incubated for 24 hours at 37° C. in a carbon dioxide gas incubator, a culture medium was replaced with a buffer solution (0.1% BSA-containing RPMI-1640). Together with a ligand ^125I-SDF-1α (specific activity: 2,200 Ci/mmol; available from Daiichi Pure Chemicals Co., Ltd. (Tokyo)), test materials with various concentrations were subjected to a binding reaction for 2 hours under ice-cooling. […] Then, a rate of inhibition of the binding between radioactive ligands and receptors CXCR4 by a test material was calculated (a binding-inhibition % at 0.01 μM)."}, "SD mice": {"test_system": "SD mice", "assay": "Acute toxicity, single transvenous administration (Test Example 3)", "type": "in vivo", "conditions": "6-week-old male SD mice, 2.5 mg/kg transvenously once in physiological saline", "experimental": "The aforementioned compound was examined for acute toxicity. Specifically, 6-week-old SD mice (male) were divided into several groups (2 to 3 mice in each group). Subsequently, each of the compounds of Examples was dissolved in a physiological saline solution, and the solution was transvenously administered to the mice (dose: 2.5 mg/kg) once. Then, the number of dead mice was counted."}, "[2]": {"assay": "Conversion of Compound No. 91 to Compound No. 84 in human serum, LCMS (Test Example 5)", "type": "in vitro ADME", "experimental": "(§1) 147 μl of human serum pool (manufactured by Cosmo Bio Co. Ltd.) or pool serum obtained by centrifugation (3,500 rpm for 10 minutes) of whole blood collected from a Crj:CD (SD) IGS male rat (manufactured by Charles River Laboratories Japan, INC.) was dispensed in a tube. 147 μl of a physiological saline solution (manufactured by Hikari Pharmaceutical Co., Ltd.) was dispensed thereto. Subsequently, the whole was preincubated for 3 minutes. The solution was added and mixed with a solution (3 μl) obtained by: diluting a 25 mmol/l DMSO solution containing the Compound No. 91 with a physiological saline solution to adjust to 500 μmol/l. The reaction was allowed to start in a thermomixer. After 30 minutes later, the solution was added with 0.1% formic acid/methanol solution (600 μl) and the whole was mixed. The solution was subjected to centrifugation (15,000 rpm for 5 minutes) and the supernatant was subjected to LCMS (liquid chromatograph mass spectrometry) measurement."}, "[3]": {"assay": "Conversion of Compound No. 91 to Compound No. 84 in rat serum, LCMS (Test Example 5)", "type": "in vitro ADME", "experimental": "as §1"}}}
{"compound": "CCCN(CCC)CCCCN(CC(=O)OCC)Cc1ccc(CN(Cc2ncc[nH]2)Cc2nccn2C)cc1", "note": "[Compound No. 91]", "values": [{"measurement": "EC50", "setting": "[1]", "result": 3, "unit": "nM"}, {"measurement": "inhibition at 0.01 µM", "setting": "CXCR4", "result": 87.7, "unit": "%"}, {"measurement": "Dead mice/test mice", "setting": "SD mice", "result": "0/3"}, {"measurement": "Proportion found by LCMS, Human, 0 minutes", "setting": "[2]; Compound No. 91 incubated in human serum/saline, 0 minutes", "result": 99, "unit": "%"}, {"measurement": "Proportion found by LCMS, Human, 30 minutes", "setting": "[2]; Compound No. 91 incubated in human serum/saline, 30 minutes", "result": 20, "unit": "%"}, {"measurement": "conversion of prodrug in serum", "setting": "[2]; human serum, 30 minutes", "result": "converted to the Compound No. 84"}, {"measurement": "Proportion found by LCMS, Rat, 0 minutes", "setting": "[3]; Compound No. 91 incubated in rat serum/saline, 0 minutes", "result": 76, "unit": "%"}, {"measurement": "Proportion found by LCMS, Rat, 30 minutes", "setting": "[3]; Compound No. 91 incubated in rat serum/saline, 30 minutes", "result": 0, "unit": "%"}, {"measurement": "conversion of prodrug in serum", "setting": "[3]; rat serum, 30 minutes", "result": "converted to the Compound No. 84"}]}
